Laboratory results as given in the NIST ThermoML archive (doi:10.1021/je700215z).
Numbers after ± are expanded uncertainties.

Assay: xn = mol fraction of the nth substance listed

CCCCCC [hexane] + CCCCO
surface tension liquid-gas [mN/m]
Conditions	283.15 K	288.15 K	293.15 K	298.15 K	303.15 K	308.15 K	313.15 K
x2 = 0.0519	19.78 ± 0.28	19.15 ± 0.27	18.6 ± 0.3	18.11 ± 0.27	17.55 ± 0.26	16.75 ± 0.26	16.4 ± 0.26
x2 = 0.0875	19.87 ± 0.28	19.26 ± 0.27	18.7 ± 0.3	18.2 ± 0.3	17.61 ± 0.26	16.8 ± 0.26	16.43 ± 0.26
x2 = 0.1959	20.17 ± 0.28	19.58 ± 0.27	19.03 ± 0.27	18.52 ± 0.27	17.92 ± 0.26	17.13 ± 0.26	16.74 ± 0.26
x2 = 0.2999	20.41 ± 0.28	19.88 ± 0.27	19.35 ± 0.27	18.84 ± 0.27	18.28 ± 0.26	17.52 ± 0.26	17.12 ± 0.26
x2 = 0.399	20.69 ± 0.28	20.14 ± 0.27	19.65 ± 0.27	19.1 ± 0.27	18.62 ± 0.26	17.91 ± 0.26	17.48 ± 0.26
x2 = 0.4914	20.93 ± 0.28	20.4 ± 0.27	19.96 ± 0.27	19.43 ± 0.27	18.92 ± 0.26	18.29 ± 0.26	17.83 ± 0.26
x2 = 0.5974	21.44 ± 0.28	20.9 ± 0.27	20.44 ± 0.27	19.91 ± 0.27	19.43 ± 0.27	18.82 ± 0.26	18.39 ± 0.26
x2 = 0.7044	22.14 ± 0.28	21.63 ± 0.28	21.18 ± 0.27	20.6 ± 0.3	20.17 ± 0.27	19.59 ± 0.26	19.12 ± 0.26
x2 = 0.8027	23.09 ± 0.28	22.54 ± 0.28	22.13 ± 0.28	21.54 ± 0.27	21.13 ± 0.27	20.6 ± 0.27	20.15 ± 0.27
x2 = 0.9088	24.37 ± 0.29	23.85 ± 0.29	23.44 ± 0.28	22.87 ± 0.28	22.51 ± 0.28	22.06 ± 0.28	21.6 ± 0.27
x2 = 0.953	24.93 ± 0.29	24.47 ± 0.29	24.07 ± 0.29	23.53 ± 0.28	23.18 ± 0.28	22.76 ± 0.28	22.37 ± 0.28

CCCCCC [hexane] + CCO
surface tension liquid-gas [mN/m]
Conditions	283.15 K	288.15 K	293.15 K	298.15 K	303.15 K	308.15 K	313.15 K
x2 = 0.0855	19.7 ± 0.28	19.11 ± 0.27	18.57 ± 0.27	18.03 ± 0.27	17.49 ± 0.26	16.67 ± 0.26	16.3 ± 0.25
x2 = 0.1006	19.74 ± 0.28	19.11 ± 0.27	18.56 ± 0.27	18.03 ± 0.27	17.48 ± 0.26	16.66 ± 0.26	16.29 ± 0.25
x2 = 0.2107	19.73 ± 0.27	19.1 ± 0.3	18.55 ± 0.27	18.01 ± 0.26	17.42 ± 0.26	16.64 ± 0.25	16.2 ± 0.3
x2 = 0.2928	19.77 ± 0.27	19.18 ± 0.27	18.57 ± 0.27	18.03 ± 0.26	17.46 ± 0.26	16.68 ± 0.25	16.24 ± 0.25
x2 = 0.4128	19.9 ± 0.27	19.29 ± 0.27	18.71 ± 0.26	18.15 ± 0.26	17.57 ± 0.26	16.85 ± 0.25	16.38 ± 0.25
x2 = 0.5071	20.08 ± 0.27	19.46 ± 0.27	18.84 ± 0.26	18.29 ± 0.26	17.72 ± 0.26	17.04 ± 0.25	16.56 ± 0.25
x2 = 0.5909	20.26 ± 0.27	19.67 ± 0.27	19.02 ± 0.26	18.45 ± 0.26	17.93 ± 0.26	17.26 ± 0.25	16.74 ± 0.25
x2 = 0.7036	20.61 ± 0.27	20.02 ± 0.27	19.36 ± 0.26	18.8 ± 0.26	18.26 ± 0.26	17.7 ± 0.25	17.21 ± 0.25
x2 = 0.8032	21.05 ± 0.27	20.46 ± 0.27	19.88 ± 0.27	19.32 ± 0.26	18.82 ± 0.26	18.31 ± 0.26	17.85 ± 0.25
x2 = 0.9021	21.78 ± 0.27	21.28 ± 0.27	20.73 ± 0.27	20.22 ± 0.27	19.81 ± 0.26	19.38 ± 0.26	18.91 ± 0.26
x2 = 0.932	22.11 ± 0.28	21.64 ± 0.27	21.11 ± 0.27	20.64 ± 0.27	20.22 ± 0.27	19.82 ± 0.26	19.36 ± 0.26
